Key:
[1] = test study of pure Nimbin in humans: analgesic effects; type: in vivo; conditions: pure Nimbin consumed orally (10 mg/day)
Experimental: (§1) For example, pure Nimbin has been consumed orally (10 mg/day) in a test study to observe therapeutic/pharmacological effects of the compound various systems/maladies in humans.

skin = test: topical administration of Nimbin: tone of the skin; type: in vivo, humans
benign tumors = test: systemic administration of Nimbin: benign tumors; type: in vivo, humans
Experimental: as §1

[2] = test system: several classes of insects (Lepidoptera, Coleoptera, Homoptera); test: insecticidal action of Nimbin; type: in vivo; conditions: diamondback moth, imported cabbage worm, cabbage looper, tobacco budworm, Colorado potato beetle, green apple aphid, green peach aphid, potato leafhopper

## COC(=O)C[C@H]1[C@]2(C)C3=C(C)[C@H](c4ccoc4)C[C@H]3O[C@@H]2[C@H](OC(C)=O)[C@@H]2[C@]1(C)C(=O)C=C[C@@]2(C)C(=O)OC [Nimbin]
[1]
  analgesic effects: analgesic effects
skin
  effect on tone of the skin: modulates the tone of the skin
Benign tumors
  action on benign tumors: regressive actions on benign tumors
[2]
  insecticidal action: broad spectrum insecticidal action

Source: patent US6545167B1, “Simple and effective manufacturing process for large scale recovery of Nimbin, a Neem seed constituent” (Fortune Bio-Tech Limited, priority 2002, dated 2003)
